According to publication PMC10447463, “Data-mining unveils structure–property–activity correlation of viral infectivity enhancing self-assembling peptides” (Nature Communications, 2023):
Read-outs that look alike come from different tables or passages of the source.

Experiments:
[1] = tested on: HIV-1 infection of TZM-bl cells; assay: HIV-1 infectivity enhancement assay, β-galactosidase luminescence; assay type: cell-based; conditions: for Rel-EFC / Log10 Infection Rel EFC: 1.3 µM peptide; for Rel-EFC: infection relative to EF-C (QCKIKQIINMWQ = 1); for Log10 Infection Rel EFC: log10 of infection relative to EF-C; for Log Infectivity: Log10 infection relative to EF-C, TZM-bl cells, asymmetric std dev errors; for Log10 Infection Rel EF-C: HIV-1 infection of TZM-bl cells; for Abs. Inf.: absolute infection signal, HIV-1 on TZM-bl cells, β-galactosidase luminescence; for Log10 Inf. rel. to EF-C: log10 of HIV-1 infection of TZM-bl cells relative to EF-C (EF-C = 0)
[2] = β-sheet content by ATR-FT-IR; assay type: physicochemical; conditions: Fig. S7 panel A; β-sheet content by ATR-FT-IR
Outline: (§1)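 Measurements on freeze-dried PNF powders used a diamond ATR element, 64 scans each, with β-sheet fraction derived as previously reported. CR reflects loss of fluorescamine-reactive monomer after 3 kDa ultrafiltration, averaged over triplicates.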

[3] = Conversion rate (CR) assay with fluorescamine; assay type: physicochemical; design: key to CR: % = 100−100×filtrate/original fluorescence intensity; conditions: conversion rate, fluorescamine assay; for CR / %: Fig. S7 panel B
Outline: as §1

[4] = Turbidity, derived count rate of scattered light; assay type: physicochemical; conditions: for Count Rate: derived count rate of scattered light (turbidity); for Log10 Count Rate: turbidity, derived count rate of scattered light, data of Figure 2D
[5] = Zeta-potential measurement; assay type: physicochemical
Outline: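 PBS pH 7.4, 1 mg/mL peptide (DMSO stock), 1 d RT aggregation; diluted in 1 mM KCl pre-read; mobility → zeta (Smoluchowski); n = 3, 2 expts averaged.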

[6] = assay type: physicochemical; design: key to Fibril / Fibril Formation / TEM 2cat / Fibril: 1 = fibrils present; 0 non-fibrillar structures; conditions: for Fibril / Fibril Formation: 1 mg/mL, uranyl acetate stain, qualitative
[7] = Fig. S7 panel A (plotted against β-sheet content)
[8] = Fig. S7 panel B (plotted against CR), rounded to two decimals
[9] = Log10 of infection rate relative to EF-C, Figure 3A source data
[10] = infection rate relative to EF-C, log10, data of Figure 2D
[11] = infection rate relative to EF-C, log10, source data of Figure 2C
[12] = zeta-potential of peptide, source data of Figure 2C
[13] = zeta-potential of the peptide assemblies, mean, Figure 3A source data
[14] = FigS12 panel A, fibril category by TEM
[15] = TEM, 1 = fibrils present, 0 = non-fibrillar
[16] = TEM, 1 = fibrils present, 0 = non-fibrillar structures

In the case of CKFQC, the Rel-EFC [1] is reported as 0,02, the “Log10 Infection Rel EFC” value [1] is reported as -1,64 and the “Log Infectivity” value [1, 7] is reported as -1.643. The “Log Infectivity” value [1, 8] was -1.64, the “Log10 Infection Rel EF-C” value [1, 9] was -1.64 and the “Log10 Infection Rel EF-C” value [1, 10] was -1.643. For the same substance, the “Log10 Infection Rel EF-C” value [1, 11] was -1.643, the “Abs. Inf.” value [1] was 496.7 and the “Log10 Inf. rel. to EF-C” value [1] was -1.643. The “b -sheet / %” value [2] was 43.86%, the CR / % [3] was 33.2% and the CR [3] was 33.24. For the same substance, the “Count Rate” value [4] was 130.4, the “Log10 Count Rate” value [4] was 2.115 and the Zeta-Pot. [5] was -17.38. The “Zeta-Potential / mV” value [5, 12] was -5.253 mV, the “Zeta-Potential / mV” value [5, 13] was -17.38 mV and the “TEM 2cat” value ([6]; Fig S10 panel D) was 0. For the same substance, the Fibril ([6]; Fig S10 panel E) was 0, the “TEM 2cat” value [6, 14] was 0 and the Fibril ([6]; FigS12 panel B, TEM) was 0. For the same substance, the “Fibril / Fibril Formation” value ([6]; TEM) was 0, the Fibril [6, 15] was 0 and the Fibril [6, 16] was 0.
With CETMYDKILKNLSRSR the Rel-EFC [1] was 0,02, the “Log10 Infection Rel EFC” value [1] was -1,72 and the “Log Infectivity” value [1, 7] was -1.716. The “Log Infectivity” value [1, 8] was -1.72, the “Log10 Infection Rel EF-C” value [1, 9] was -1.72 and the “Log10 Infection Rel EF-C” value [1, 10] was -1.716. For the same substance, the “Log10 Infection Rel EF-C” value [1, 11] was -1.716, the “Abs. Inf.” value [1] was 363.3 and the “Log10 Inf. rel. to EF-C” value [1] was -1.716. The “b -sheet / %” value [2] was 62.1014%, the CR / % [3] was 98.9% and the CR [3] was 98.89. The “Count Rate” value [4] was 1099, the “Log10 Count Rate” value [4] was 3.041 and the Zeta-Pot. [5] was 0.41. The “Zeta-Potential / mV” value [5, 12] was -1.487 mV, the “Zeta-Potential / mV” value [5, 13] was 0.41 mV and the “TEM 2cat” value ([6]; Fig S10 panel D) was 0. The Fibril ([6]; Fig S10 panel E) was 0, the “TEM 2cat” value [6, 14] was 0 and the Fibril ([6]; FigS12 panel B, TEM) was 0. The “Fibril / Fibril Formation” value ([6]; TEM) was 0, the Fibril [6, 15] was 0 and the Fibril [6, 16] was 0.
With HLHLPLL the Rel-EFC [1] was 0,01, the “Log10 Infection Rel EFC” value [1] was -2 and the “Log Infectivity” value [1, 7] was -1.9991. The “Log Infectivity” value [1, 8] was -2, the “Log10 Infection Rel EF-C” value [1, 9] was -2 and the “Log10 Infection Rel EF-C” value [1, 10] was -1.9991. The “Log10 Infection Rel EF-C” value [1, 11] was -1.9991, the “Abs. Inf.” value [1] was 133.3 and the “Log10 Inf. rel. to EF-C” value [1] was -1.9991. The “b -sheet / %” value [2] was 49.19%, the CR / % [3] was 37.5% and the CR [3] was 37.51. The “Count Rate” value [4] was 200, the “Log10 Count Rate” value [4] was 2.301 and the Zeta-Pot. [5] was -9.053. The “Zeta-Potential / mV” value [5, 12] was -5.247 mV, the “Zeta-Potential / mV” value [5, 13] was -9.05 mV and the “TEM 2cat” value ([6]; Fig S10 panel D) was 0. For the same substance, the Fibril ([6]; Fig S10 panel E) was 0, the “TEM 2cat” value [6, 14] was 0 and the Fibril ([6]; FigS12 panel B, TEM) was 0. The “Fibril / Fibril Formation” value ([6]; TEM) was 0, the Fibril [6, 15] was 0 and the Fibril [6, 16] was 0.
In the case of RGECKFKFQF, the Rel-EFC [1] is reported as 0,33, the “Log10 Infection Rel EFC” value [1] is reported as -0,48 and the “Log Infectivity” value [1, 7] is reported as -0.4776. For the same substance, the “Log Infectivity” value [1, 8] was -0.48, the “Log10 Infection Rel EF-C” value [1, 9] was -0.48 and the “Log10 Infection Rel EF-C” value [1, 10] was -0.4776. For the same substance, the “Log10 Infection Rel EF-C” value [1, 11] was -0.4776, the “Log10 of Rel to EFC (Feb2021)” value ([1]; Log10 of infection relative to EF-C, all peptides of FigS16) was -0.48 and the “Abs. Inf.” value [1] was 7411. For the same substance, the “Log10 Inf. rel. to EF-C” value [1] was -0.4776, the “b -sheet / %” value [2] was 46.18% and the CR / % [3] was 98.7%. For the same substance, the CR [3] was 98.71, the “Count Rate” value [4] was 219.3 and the “Log10 Count Rate” value [4] was 2.341. The Zeta-Pot. [5] was 23.97, the “Zeta-Potential / mV” value [5, 12] was 22.32 mV and the “Zeta-Potential / mV” value [5, 13] was 23.97 mV. The “TEM 2cat” value ([6]; Fig S10 panel D) was 1, the Fibril ([6]; Fig S10 panel E) was 1 and the “Fibril / Fibril Formation” value ([6]; TEM) was 1. The Fibril [6, 15] was 1, the Fibril [6, 16] was 1 and the “TEM 2cat” value ([6]; category: fibrils present or non-fibrillar) was 1.
For SISISRRI, the Rel-EFC [1] was 0,03, the “Log10 Infection Rel EFC” value [1] was -1,55 and the “Log Infectivity” value [1, 7] was -1.548. The “Log Infectivity” value [1, 8] was -1.55, the “Log10 Infection Rel EF-C” value [1, 9] was -1.55 and the “Log10 Infection Rel EF-C” value [1, 10] was -1.548. The “Log10 Infection Rel EF-C” value [1, 11] was -1.548, the “Abs. Inf.” value [1] was 313.3 and the “Log10 Inf. rel. to EF-C” value [1] was -1.548. The “b -sheet / %” value [2] was 48.78%, the CR / % [3] was 24.2% and the CR [3] was 24.22. The “Count Rate” value [4] was 25.27, the “Log10 Count Rate” value [4] was 1.403 and the Zeta-Pot. [5] was -17. For the same substance, the “Zeta-Potential / mV” value [5, 12] was -9.316 mV, the “Zeta-Potential / mV” value [5, 13] was -17 mV and the “TEM 2cat” value ([6]; Fig S10 panel D) was 0. For the same substance, the Fibril ([6]; Fig S10 panel E) was 0, the “TEM 2cat” value [6, 14] was 0 and the Fibril ([6]; FigS12 panel B, TEM) was 0. For the same substance, the “Fibril / Fibril Formation” value ([6]; TEM) was 0, the Fibril [6, 15] was 0 and the Fibril [6, 16] was 0.
